As a reminder, the Ki is a measure of affinity in units of concentration, obtained from inhibition or displacement. A low value points to tighter binding.

In this experiment the target is T1, h-GABAA α5β2γ1 (Homo sapiens, UniProt P31644+Q8N1C3).
T1 construct: expressed in transfected cells; host or cells: HEK293F cells (ThermoFisher R79007), membranes
T1 sequence (P31644 32-462): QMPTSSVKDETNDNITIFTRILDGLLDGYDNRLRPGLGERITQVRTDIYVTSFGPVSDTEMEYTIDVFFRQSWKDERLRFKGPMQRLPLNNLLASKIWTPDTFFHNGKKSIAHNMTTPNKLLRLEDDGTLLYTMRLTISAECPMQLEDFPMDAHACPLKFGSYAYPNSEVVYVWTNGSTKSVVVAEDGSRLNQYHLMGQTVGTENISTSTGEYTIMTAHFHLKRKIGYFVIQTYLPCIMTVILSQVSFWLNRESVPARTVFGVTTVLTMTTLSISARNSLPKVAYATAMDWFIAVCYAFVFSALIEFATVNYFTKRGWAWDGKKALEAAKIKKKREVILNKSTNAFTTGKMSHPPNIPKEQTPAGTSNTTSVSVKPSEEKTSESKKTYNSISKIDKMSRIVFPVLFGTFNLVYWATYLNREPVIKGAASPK
T1 sequence (P47870 25-512 partner limits assumed): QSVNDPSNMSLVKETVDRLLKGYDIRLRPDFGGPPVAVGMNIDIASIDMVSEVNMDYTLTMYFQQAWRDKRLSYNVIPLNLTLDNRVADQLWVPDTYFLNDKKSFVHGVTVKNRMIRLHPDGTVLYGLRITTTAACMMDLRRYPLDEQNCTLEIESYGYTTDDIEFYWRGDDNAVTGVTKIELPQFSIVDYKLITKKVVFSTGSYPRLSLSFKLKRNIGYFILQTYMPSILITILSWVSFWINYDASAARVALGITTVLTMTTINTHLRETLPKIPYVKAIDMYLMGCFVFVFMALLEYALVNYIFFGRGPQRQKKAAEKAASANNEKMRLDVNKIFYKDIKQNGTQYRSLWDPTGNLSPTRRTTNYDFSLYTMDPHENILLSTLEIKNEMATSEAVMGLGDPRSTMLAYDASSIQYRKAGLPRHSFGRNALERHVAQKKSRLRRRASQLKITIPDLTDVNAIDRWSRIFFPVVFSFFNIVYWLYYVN
T1 sequence (Q8N1C3 36-465): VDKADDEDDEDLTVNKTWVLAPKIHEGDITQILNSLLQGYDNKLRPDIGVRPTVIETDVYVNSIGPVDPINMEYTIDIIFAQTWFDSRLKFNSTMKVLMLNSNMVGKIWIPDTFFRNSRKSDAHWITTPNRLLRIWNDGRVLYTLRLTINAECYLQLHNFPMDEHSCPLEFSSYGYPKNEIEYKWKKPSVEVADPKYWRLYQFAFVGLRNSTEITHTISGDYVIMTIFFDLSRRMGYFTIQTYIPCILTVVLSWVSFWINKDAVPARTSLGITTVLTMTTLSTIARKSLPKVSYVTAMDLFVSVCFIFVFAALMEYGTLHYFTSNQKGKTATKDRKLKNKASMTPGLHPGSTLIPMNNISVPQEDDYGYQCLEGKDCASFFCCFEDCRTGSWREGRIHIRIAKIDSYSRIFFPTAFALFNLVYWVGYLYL
The experiment can be described thus: Radioligand binding assay, [3H]RO7239181 competition, HEK293F membranes. The method, then: The affinity of compounds at GABAA γ1 subunit-containing receptors was measured by competition for [^3H]RO7239181 (67.3 Ci/mmol; Roche) binding to membranes from HEK293F cells (ThermoFisher R79007) expressing human (transiently transfected) receptors of composition […], α2β2γ1, α1β2γ1. For better protein expression of the α2 subunit-containing receptors, the 28 amino acid long signal peptide (Met1 to Ala28) of the human GABAA α2 subunit was substituted by the 31 amino acid long signal peptide (Met1 to Ser31) of human GABAA α5 subunit.
Harvested pellets from HEK293F cells expressing the different GABAA receptor subtypes were resuspended in Mannitol Buffer pH 7.2-7.4 (Mannitol 0.29M, Triethylamine 10 mM, Acetic acid 10 mM, EDTA 1 mM plus protease inhibitors (20 tablets Complete, Roche Diagnostics Cat. No. 05 056 489 001 per liter)), washed two times and then resuspended at 1:10 to 1:15 dilution in the same buffer. Cell disruption was performed by stirring the suspension in a Parr vessel #4637 at 435 psi for 15 minutes, and then the suspensions were centrifuged at 1000×g for 15 minutes at 4° C. (Beckman Avanti J-HC; rotor JS-4.2). The supernatant (S1) was transferred in a 21 Schott flask and the pellet (P1) was resuspended with Mannitol Buffer up to 175 ml. The resuspended pellet was transferred into a 250 ml Corning centrifugal beaker and centrifuged at 1500×g for 10 minutes at 4° C. (Beckman Avanti J-HC; rotor JS-4.2). The supernatant (S1) was then transferred in the 21 Schott flask and the pellet was discarded. The supernatants (S1) were centrifuged in 500 ml Beckman polypropylene centrifugal beaker at 15′000×g for 30 minutes at 4° C. (Beckman Avanti J-20 XP; rotor JLA-10.500). The pellet (P2) was resuspended with Mannitol Buffer 1:1 and frozen at −80° C. The supernatant (S2) was centrifuged in 100 ml Beckman polypropylene centrifugal tubes at 48000×g for 50 minutes at 4° C. (Beckman Avanti J-20 XP; rotor JA-18). The supernatant (S3) was discarded and the pellet (P3) was resuspended with 1:1 Mannitol Buffer. The P2 and P3 protein concentration was determined with the BIORAD Standard assay method with bovine serum albumin as standard and measured on the NANO-Drop 1000. The membrane suspension was aliquots (500 μl per tube) and stored at −80° C. until required. Membrane homogenates were resuspended and polytronised (Polytron PT1200E Kinematica AG) in Potassium Phosphate 10 mM, KCl 100 mM binding buffer at pH 7.4 to a final assay concentration determined with a previous experiment.
Radioligand binding assays were carried out in a volume of 200 μL (96-well plates) which contained 100 μL of cell membranes, [^3H]RO7239181 at a concentration of 1.5 nM (α5β2γ1) or 20-30 nM (α1β2γ1, α2β2γ1) and the test compound in the range of [0.3-10000]×10^−9 M. Nonspecific binding was defined by 10×10^−6 (α5β2γ1) and 30×10^−6 M RO7235136 and typically represented less than 5% (α5β2γ1) and less than 20% (α1β2γ1, α2β2γ1) of the total binding. Assays were incubated to equilibrium for 1 hour at 4° C. and then, membranes were filtered onto unifilter (96-well white microplate with bonded GF/C filters preincubated 20-50 minutes in 0.3% Polyethylenimine) with a Filtermate 196 harvester (Packard BioScience) and washed 4 times with cold Potassium Phosphate 10 mM pH 7.4, KCl 100 mM binding buffer. After drying, filter-retained radioactivity was detected by liquid scintillation counting. Ki values were calculated using Excel-Fit (Microsoft) and are the means of two determinations.
Compound `Cc1nnc2n1-c1ccc(C(C)(F)F)c(Cl)c1C(c1c(F)cccc1F)=NC2` [Example 22, 7-chloro-8-(1,1-difluoroethyl)-6-(2,6-difluorophenyl)-1-methyl-4H-[1,2,4]triazolo[4,3-a][1,4]benzodiazepine] yielded a Ki of 4.3 nM.
The same measure for `Fc1cccc(F)c1C1=NCc2nncn2-c2ccc(C(F)F)c(Cl)c21` [Example 23, 7-chloro-8-(difluoromethyl)-6-(2,6-difluorophenyl)-4H-[1,2,4]triazolo[4,3-a][1,4]benzodiazepine]: 5.8 nM; for `Cc1nnc2n1-c1ccc(Br)c(Cl)c1C(c1ncccc1F)=NC2` [Example 24, 8-bromo-7-chloro-6-(3-fluoro-2-pyridyl)-1-methyl-4H-[1,2,4]triazolo[4,3-a][1,4]benzodiazepine]: 3.5 nM.
For the compound `Cc1nnc2n1-c1ccc(C(F)F)c(Cl)c1C(c1c(F)cccc1F)=NC2` [Example 25, 7-chloro-8-(difluoromethyl)-6-(2,6-difluorophenyl)-1-methyl-4H-[1,2,4]triazolo[4,3-a][1,4]benzodiazepine], the affinity, expressed as Ki, was 4.4 nM.
For `O=c1[nH]nc2n1-c1ccc(Br)c(Cl)c1C(c1ccccc1F)=NC2` [Example 26, 8-bromo-7-chloro-6-(2-fluorophenyl)-2,4-dihydro-[1,2,4]triazolo[4,3-a][1,4]benzodiazepin-1-one], the Ki was found to be 2.3 nM.
As for `Fc1ccccc1C1=NCc2nnc(-c3cccnn3)n2-c2ccc(C(F)(F)F)c(Cl)c21` [Example 27, 7-chloro-6-(2-fluorophenyl)-1-pyridazin-3-yl-8-(trifluoromethyl)-4H-[1,2,4]triazolo[4,3-a][1,4]benzodiazepine], the figure is 6.3 nM.
As for `Cn1cc(-c2nnc3n2-c2ccc(Cl)c(Cl)c2C(c2c(F)cccc2F)=NC3)cn1` [Example 28, 7,8-dichloro-6-(2,6-difluorophenyl)-1-(1-methylpyrazol-4-yl)-4H-[1,2,4]triazolo[4,3-a][1,4]benzodiazepine], the figure is 1.4 nM; as for `Fc1cccnc1C1=NCc2nncn2-c2ccc(Br)c(Cl)c21` [Example 29, 8-bromo-7-chloro-6-(3-fluoro-2-pyridyl)-4H-[1,2,4]triazolo[4,3-a][1,4]benzodiazepine], 7.2 nM.
Turning to `OCc1nnc2n1-c1ccc(Br)c(Cl)c1C(c1c(F)cccc1F)=NC2` [Example 33, [8-bromo-7-chloro-6-(2,6-difluorophenyl)-4H-[1,2,4]triazolo[4,3-a][1,4]benzodiazepin-1-yl]methanol], the affinity corresponds to a Ki of 1.5 nM.
As for `Fc1cccc(F)c1C1=NCc2nncn2-c2ccc(I)c(Cl)c21` [Example 34, 7-chloro-6-(2,6-difluorophenyl)-8-iodo-4H-[1,2,4]triazolo[4,3-a][1,4]benzodiazepine], the figure is 0.3 nM; as for `Cl.NCc1nnc2n1-c1ccc(Br)c(Cl)c1C(c1c(F)cccc1F)=NC2` [Example 36, [8-bromo-7-chloro-6-(2,6-difluorophenyl)-4H-[1,2,4]triazolo[4,3-a][1,4]benzodiazepin-1-yl]methanamine hydrochloride], 1.8 nM.
Compound `Fc1cccc(F)c1C1=NCc2nncn2-c2ccc(C(F)(F)F)c(Cl)c21` [Example 37, 7-chloro-6-(2,6-difluorophenyl)-8-(trifluoromethyl)-4H-[1,2,4]triazolo[4,3-a][1,4]benzodiazepine] gave a Ki of 2.1 nM.
In the case of `Fc1cccc(F)c1C1=NCc2nnc(-c3cccnn3)n2-c2ccc(C(F)(F)F)c(Cl)c21` [Example 38, 7-chloro-6-(2,6-difluorophenyl)-1-pyridazin-3-yl-8-(trifluoromethyl)-4H-[1,2,4]triazolo[4,3-a][1,4]benzodiazepine], the affinity, expressed as Ki, was 1.9 nM.
In turn, `Fc1cccc(F)c1C1=NCc2nnc(-c3cccnn3)n2-c2ccc(I)c(Cl)c21` [Example 39, 7-chloro-6-(2,6-difluorophenyl)-8-iodo-1-pyridazin-3-yl-4H-[1,2,4]triazolo[4,3-a][1,4]benzodiazepine] showed a Ki of 0.8 nM.
`Cc1nnc2n1-c1ccc(C(F)(F)F)c(Cl)c1C(c1c(F)cccc1F)=NC2` [Example 40, 7-chloro-6-(2,6-difluorophenyl)-1-methyl-8-(trifluoromethyl)-4H-[1,2,4]triazolo[4,3-a][1,4]benzodiazepine] returned a Ki of 1.9 nM.
The same measure for `Cc1nnc2n1-c1ccc(I)c(Cl)c1C(c1c(F)cccc1F)=NC2` [Example 41, 7-chloro-6-(2,6-difluorophenyl)-8-iodo-1-methyl-4H-[1,2,4]triazolo[4,3-a][1,4]benzodiazepine]: 0.8 nM.
For `Fc1cccc(F)c1C1=NCc2nnc(-c3cccnn3)n2-c2ccc(Br)c(Br)c21` [Example 42, 7,8-dibromo-6-(2,6-difluorophenyl)-1-pyridazin-3-yl-4H-[1,2,4]triazolo[4,3-a][1,4]benzodiazepine], the Ki is 0.9 nM.
The same measure for `Fc1cccc(F)c1C1=NCc2nnc(-c3ccncn3)n2-c2ccc(Br)c(Br)c21` [Example 43, 7,8-dibromo-6-(2,6-difluorophenyl)-1-pyrimidin-4-yl-4H-[1,2,4]triazolo[4,3-a][1,4]benzodiazepine]: 1.4 nM.
`Clc1cccnc1C1=NCc2nnc(-c3ccncn3)n2-c2ccc(Br)c(Cl)c21` [Example 44, 8-bromo-7-chloro-6-(3-chloro-2-pyridyl)-1-pyrimidin-4-yl-4H-[1,2,4]triazolo[4,3-a][1,4]benzodiazepine] had a Ki of 1.4 nM.
The same measure for `Fc1cccnc1C1=NCc2nnc(-c3cccnn3)n2-c2ccc(Br)c(Cl)c21` [Example 45, 8-bromo-7-chloro-6-(3-fluoro-2-pyridyl)-1-pyridazin-3-yl-4H-[1,2,4]triazolo[4,3-a][1,4]benzodiazepine]: 3 nM.

The values are drawn from patent US20230141603A1, “BENZODIAZEPINE DERIVATIVES AS GABA A GAMMA1 PAM” (Hoffmann-La Roche Inc., priority 2021, published 2023).
